Legend:
sugar beet = test: Preemergent control of plant species; type: in vivo, Beta saccharifera; settings: Beta vulgaris, pre-emergence, 336 h; 0.25 lb/acre; read-out: percent preemergent control
How it was run: (§1)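 Test compositions were applied evenly to the surface of freshly seeded soil beds and kept under greenhouse conditions for two weeks. Percent control reflects growth reduction compared with water-treated beds of the same species.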

cotton = test: Preemergent control of plant species; type: in vivo, Gossypium spp.; settings: Gossypium hirsutum, pre-emergence, 336 h; 0.25 lb/acre; read-out: percent preemergent control
How it was run: as §1

crabgrass = test: Preemergent control of plant species; type: in vivo, Digitaria spp.; settings: Digitaria sanguinalis, pre-emergence, 336 h; 0.25 lb/acre; read-out: percent preemergent control
Method: (§2) The seeds of various species of plants were planted in beds of good agricultural soil in a greenhouse. A number of compositions of the present invention, generally in the nature of an aqueous emulsion, were applied at rates listed in the table so as to deposit a predetermined amount of active ingredients uniformly throughout the surface of the bed. Another seed bed was treated only with water to serve as a control. After treatment the seed beds were maintained for two weeks under greenhouse conditions conducive for good plant growth and watered as necessary. Control refers to the reduction in growth compared to the observed results of the same untreated species.

barnyardgrass [1] = test: Control of aquatic plant species (paddy water); type: in vivo, Echinochloa crusgalli; settings: Echinochloa crus-galli, 216 h, nine days, read-out: Percent control; for pest or weed control at 250 g/ha: 0.25 Kg/Ha
Method: In testing for such utility, the plant species to be tested were transplanted into 16 oz. containers into about 2 inches of soil when they were in the 1-2 inch stage and then flooded to a depth of about 1 inch. An acetone concentrate of the chemical to be tested was then injected into the paddy water, the volume injected being varied as desired to provide the desired concentration. Percent control was evaluated nine days after application.

corn = test: Preemergent control of plant species; type: in vivo, Zea mays; settings: Zea mays, pre-emergence, 336 h; 0.25 lb/acre; read-out: percent preemergent control
How it was run: as §1

sprangletop = test: Control of aquatic plant species (paddy water); type: in vivo, Leptochloa filiformis; settings: Leptochloa filiformis, 216 h, nine days, read-out: Percent control; for pest or weed control at 250 g/ha: 0.25 Kg/Ha
How it was run: (§3)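 Compound, delivered as an acetone concentrate, is injected directly into paddy water over transplanted 1-2 inch plants flooded about 1 inch deep, with dose set by injected volume; percent control is read nine days later.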

barnyardgrass [2] = test: Preemergent control of plant species; type: in vivo, Echinochloa crusgalli; settings: Echinochloa crus-galli, pre-emergence, 336 h; 0.25 lb/acre; read-out: percent preemergent control
How it was run: as §1

johnson grass = test: Preemergent control of plant species; type: in vivo, Sorghum halepense; settings: Sorghum halepense, pre-emergence, 336 h; 0.25 lb/acre; read-out: percent preemergent control
How it was run: as §1

[3] = system: nitrification of ammonium nitrogen; test: Suppression of nitrification of ammonium nitrogen in soil; settings: 27° C.
How it was run: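 Value is % NH4-N remaining after a two-week, 27° C incubation of treated soil held at 1/3 bar tension moisture. Nitrate was measured with an ion-selective electrode after extraction with ammonium sulfate solution and 10 min shaking.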

soybean = test: Preemergent control of plant species; type: in vivo, Glycine max.; settings: Glycine max, pre-emergence, 336 h; 0.25 lb/acre; read-out: percent preemergent control
How it was run: as §1

velvetleaf = test: Preemergent control of plant species; type: in vivo, Abutilon theophrasti; settings: Abutilon theophrasti, pre-emergence, 336 h; 0.25 lb/acre; read-out: percent preemergent control
How it was run: as §1

sorghum = test: Preemergent control of plant species; type: in vivo, Sorghum vulgare; settings: Sorghum, pre-emergence, 336 h; 0.25 lb/acre; read-out: percent preemergent control
How it was run: as §1

pigweed = test: Preemergent control of plant species; type: in vivo, Amaranthus spp.; settings: Amaranthus retroflexus, pre-emergence, 336 h; 0.25 lb/acre; read-out: percent preemergent control
Method: as §2

rape = test: Preemergent control of plant species; type: in vivo, Brassica napus; settings: Brassica napus, pre-emergence, 336 h; 0.25 lb/acre; read-out: percent preemergent control
How it was run: as §1

yellow nutsedge [4] = test: Control of aquatic plant species (paddy water); type: in vivo, Cyperus esculentus; settings: Cyperus, 216 h, nine days, read-out: Percent control; for pest or weed control at 250 g/ha: 0.25 Kg/Ha
How it was run: as §3

wild oats = test: Preemergent control of plant species; type: in vivo; settings: Avena fatua, pre-emergence, 336 h; 0.25 lb/acre; read-out: percent preemergent control
How it was run: as §1

yellow foxtail = test: Preemergent control of plant species; type: in vivo, Setaria lutescens; settings: Setaria, pre-emergence, 336 h; 0.25 lb/acre; read-out: percent preemergent control
How it was run: as §1

annual morning glory = test: Preemergent control of plant species; type: in vivo, Ipomoea spp.; settings: Ipomoea, pre-emergence, 336 h; 0.25 lb/acre; read-out: percent preemergent control
How it was run: as §1

wheat = test: Preemergent control of plant species; type: in vivo, Triticum aestivum; settings: Triticum aestivum, pre-emergence, 336 h; 0.25 lb/acre; read-out: percent preemergent control
How it was run: as §1

rice [5] = test: Control of aquatic plant species (paddy water); type: in vivo, Oryza sativa; settings: Oryza sativa, 216 h, nine days, read-out: Percent control; for pest or weed control at 250 g/ha: 0.25 Kg/Ha
How it was run: as §3

yellow nutsedge [6] = test: Preemergent control of plant species; type: in vivo, Cyperus esculentus; settings: Cyperus, pre-emergence, 336 h; 0.25 lb/acre; read-out: percent preemergent control
How it was run: as §1

jimsonweed = test: Preemergent control of plant species; type: in vivo, Datura stramonium; settings: Datura stramonium, pre-emergence, 336 h; 0.25 lb/acre; read-out: percent preemergent control
How it was run: as §1

rice [7] = test: Preemergent control of plant species; type: in vivo, Oryza sativa; settings: Oryza sativa, pre-emergence, 336 h; 0.25 lb/acre; read-out: percent preemergent control
How it was run: as §1

Compound | plant injury at 280.212 g/ha (sugar beet) | plant injury at 280.212 g/ha (cotton) | pest or weed control at 280.212 g/ha (crabgrass) | plant injury at 280.212 g/ha (corn) | pest or weed control at 280.212 g/ha (barnyardgrass [2]) | pest or weed control at 280.212 g/ha (johnson grass) | % NH4-N Remaining After 2 Weeks Incubation ([3]; 0.06 ppm) | % NH4-N Remaining After 2 Weeks Incubation ([3]; 0.25 ppm) | % NH4-N Remaining After 2 Weeks Incubation ([3]; 1 ppm) | plant injury at 280.212 g/ha (soybean) | pest or weed control at 280.212 g/ha (velvetleaf) | plant injury at 280.212 g/ha (sorghum) | pest or weed control at 280.212 g/ha (pigweed) | plant injury at 280.212 g/ha (rape) | pest or weed control at 280.212 g/ha (wild oats) | pest or weed control at 280.212 g/ha (yellow foxtail) | pest or weed control at 280.212 g/ha (annual morning glory) | plant injury at 280.212 g/ha (wheat) | pest or weed control at 280.212 g/ha (jimsonweed) | plant injury at 280.212 g/ha (rice [7]) | further results
Cc1cc(C)n2nc(S(=O)(=O)Nc3c(Cl)cccc3Cl)nc2n1 [Compound 22, 5,7-Dimethyl-N-(2,6-dichlorophenyl)-1,2,4-triazolo[1,5-a]pyrimidine-2-sulfonamide] | 98% | 95% | 95% | 50% | 95% | 98% | 69% | 82% | 86% | 95% | 98% | 95% | 100% | 100% | 90% | 98% | 70% | 50% | 100% | 90% | pest or weed control at 250 g/ha (barnyardgrass [1]): 97%; pest or weed control at 250 g/ha (sprangletop): 30%; % NH4-N Remaining After 2 Weeks Incubation ([3]; 0.125 ppm): 77%; % NH4-N Remaining After 2 Weeks Incubation ([3]; 0.5 ppm): 86%; pest or weed control at 250 g/ha (yellow nutsedge [4]): 97%; pest or weed control at 250 g/ha (rice [5]): 97%; pest or weed control at 280.212 g/ha (yellow nutsedge [6]): 98%
Cc1cc(C)n2nc(S(=O)(=O)Nc3c(F)cccc3F)nc2n1 [Compound 25, 5,7-Dimethyl-N-(2,6-difluorophenyl)-1,2,4-triazolo[1,5-a]pyrimidine-2-sulfonamide] | 100% | 98% | 100% | 100% | 98% | 98% | 31% | 48% | 79% | 98% | 98% | – | 100% | 100% | 95% | 100% | 80% | 70% | 98% | 100% | pest or weed control at 250 g/ha (barnyardgrass [1]): 95%; pest or weed control at 250 g/ha (sprangletop): 0%; % NH4-N Remaining After 2 Weeks Incubation ([3]; 0.125 ppm): 46%; % NH4-N Remaining After 2 Weeks Incubation ([3]; 0.5 ppm): 73%; pest or weed control at 250 g/ha (yellow nutsedge [4]): 90%; pest or weed control at 250 g/ha (rice [5]): 97%; pest or weed control at 280.212 g/ha (yellow nutsedge [6]): 95%
Cc1cc(C)n2nc(S(=O)(=O)Nc3c(F)cccc3C(=O)OC(C)C)nc2n1 [Compound 51] | 95% | 93% | 95% | 97% | 97% | 95% | 33% | 58% | 78% | 90% | 95% | 97% | 100% | 95% | 100% | 97% | 80% | 97% | 95% | 80% | pest or weed control at 31 g/ha (barnyardgrass [1]; 0.031 Kg/Ha): 35%; pest or weed control at 1000 g/ha (barnyardgrass [1]; 1.0 Kg/Ha): 97%; pest or weed control at 31 g/ha (sprangletop; 0.031 Kg/Ha): 0%; pest or weed control at 1000 g/ha (sprangletop; 1.0 Kg/Ha): 70%; % NH4-N Remaining After 2 Weeks Incubation ([3]; 4 ppm): 87%; pest or weed control at 31 g/ha (yellow nutsedge [4]; 0.031 Kg/Ha): 93%; pest or weed control at 1000 g/ha (yellow nutsedge [4]; 1.0 Kg/Ha): 97%; pest or weed control at 31 g/ha (rice [5]; 0.031 Kg/Ha): 0%; pest or weed control at 1000 g/ha (rice [5]; 1.0 Kg/Ha): 95%; pest or weed control at 280.212 g/ha (yellow nutsedge [6]): 100%
Cc1cc(C)n2nc(S(=O)(=O)Nc3c(C)cccc3Cl)nc2n1 [Compound 31] | 100% | 80% | 100% | 95% | 100% | 100% | – | – | 86% | 95% | 95% | 50% | 95% | 98% | 98% | 100% | 100% | 98% | 65% | 98% | pest or weed control at 125 g/ha (barnyardgrass [1]; 0.125 Kg/Ha): 97%; pest or weed control at 125 g/ha (sprangletop; 0.125 Kg/Ha): 45%; % NH4-N Remaining After 2 Weeks Incubation ([3]; 0.01 ppm): 34%; % NH4-N Remaining After 2 Weeks Incubation ([3]; 0.1 ppm): 66%; % NH4-N Remaining After 2 Weeks Incubation ([3]; 10 ppm): 91%; pest or weed control at 125 g/ha (yellow nutsedge [4]; 0.125 Kg/Ha): 97%; pest or weed control at 125 g/ha (rice [5]; 0.125 Kg/Ha): 90%
